Data as given in PubChem BioAssay (NCI).
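48-hour exposure; five concentrations; linearly interpolated endpoints. GI50 marks 50% less growth. TGI denotes the concentration required for complete inhibition of growth.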

Experiments:
Assay in all cases: NCI-60 cell line screen, 48 h
K-562 leukemia = test system: K-562 leukemia
786-0 renal = test system: 786-0 renal
TK-10 renal = test system: TK-10 renal
HCT-15 colon = test system: HCT-15 colon
NCI-H23 lung = test system: NCI-H23 lung
HCC-2998 colon = test system: HCC-2998 colon
UACC-62 melanoma = test system: UACC-62 melanoma
LOX IMVI melanoma = test system: LOX IMVI melanoma
SW-620 colon = test system: SW-620 colon
OVCAR-3 ovarian = test system: OVCAR-3 ovarian
IGROV1 ovarian = test system: IGROV1 ovarian
SNB-75 CNS = test system: SNB-75 CNS
NCI-H460 lung = test system: NCI-H460 lung
T-47D breast = test system: T-47D breast
NCI/ADR-RES ovarian = test system: NCI/ADR-RES ovarian
UACC-257 melanoma = test system: UACC-257 melanoma
RPMI-8226 leukemia = test system: RPMI-8226 leukemia
SK-MEL-5 melanoma = test system: SK-MEL-5 melanoma
DU-145 prostate = test system: DU-145 prostate
CCRF-CEM leukemia = test system: CCRF-CEM leukemia
OVCAR-5 ovarian = test system: OVCAR-5 ovarian
NCI-H522 lung = test system: NCI-H522 lung
MCF7 breast = test system: MCF7 breast
COLO 205 colon = test system: COLO 205 colon
U251 CNS = test system: U251 CNS
HS 578T breast = test system: HS 578T breast
SN12C renal = test system: SN12C renal
MDA-MB-231 breast = test system: MDA-MB-231 breast
SK-MEL-28 melanoma = test system: SK-MEL-28 melanoma
NCI-H226 lung = test system: NCI-H226 lung
HOP-62 NSCLC = test system: HOP-62 NSCLC
SF-295 CNS = test system: SF-295 CNS
SF-268 CNS = test system: SF-268 CNS
ACHN renal = test system: ACHN renal
SR leukemia = test system: SR leukemia
SF-539 CNS = test system: SF-539 CNS
PC-3 prostate = test system: PC-3 prostate
RXF 393 renal = test system: RXF 393 renal
MDA-MB-435 = test system: MDA-MB-435
MALME-3M melanoma = test system: MALME-3M melanoma
A498 renal = test system: A498 renal
OVCAR-8 ovarian = test system: OVCAR-8 ovarian
SNB-19 CNS = test system: SNB-19 CNS
A549 NSCLC = test system: A549 NSCLC
HCT-116 colon = test system: HCT-116 colon
HT29 colon = test system: HT29 colon
KM12 colon = test system: KM12 colon
M14 melanoma = test system: M14 melanoma
CAKI-1 renal = test system: CAKI-1 renal
MOLT-4 leukemia = test system: MOLT-4 leukemia
SK-MEL-2 melanoma = test system: SK-MEL-2 melanoma
OVCAR-4 ovarian = test system: OVCAR-4 ovarian
BT-549 breast = test system: BT-549 breast
SK-OV-3 ovarian = test system: SK-OV-3 ovarian
HL-60(TB) leukemia = test system: HL-60(TB) leukemia
UO-31 renal = test system: UO-31 renal

COc1cc(C(=O)NN=C2c3ccccc3-c3ccccc32)cc(OC)c1OC
GI50 (K-562 leukemia): 0.829 µM
TGI (K-562 leukemia): 26.2 µM
GI50 (786-0 renal): 6.86 µM
TGI (786-0 renal): 31.3 µM
GI50 (TK-10 renal): 7.86 µM
TGI (TK-10 renal): 32.6 µM
GI50 (HCT-15 colon): 2.63 µM
TGI (HCT-15 colon): > 100 µM
GI50 (NCI-H23 lung): 3.94 µM
TGI (NCI-H23 lung): 41.4 µM
GI50 (HCC-2998 colon): 10.5 µM
TGI (HCC-2998 colon): 57.8 µM
GI50 (UACC-62 melanoma): 3.09 µM
TGI (UACC-62 melanoma): 24.8 µM
GI50 (LOX IMVI melanoma): 2.78 µM
TGI (LOX IMVI melanoma): 49.4 µM
GI50 (SW-620 colon): 2.53 µM
TGI (SW-620 colon): > 100 µM
GI50 (OVCAR-3 ovarian): 2.33 µM
TGI (OVCAR-3 ovarian): 10.6 µM
GI50 (IGROV1 ovarian): 3.47 µM
TGI (IGROV1 ovarian): 32.9 µM
GI50 (SNB-75 CNS): 2.86 µM
TGI (SNB-75 CNS): 21 µM
GI50 (NCI-H460 lung): 3.17 µM
TGI (NCI-H460 lung): 26.6 µM
GI50 (T-47D breast): 3.9 µM
TGI (T-47D breast): 65.5 µM
GI50 (NCI/ADR-RES ovarian): 2.06 µM
TGI (NCI/ADR-RES ovarian): 11.7 µM
GI50 (UACC-257 melanoma): 3.33 µM
TGI (UACC-257 melanoma): 34.2 µM
GI50 (RPMI-8226 leukemia): 3.5 µM
TGI (RPMI-8226 leukemia): > 100 µM
GI50 (SK-MEL-5 melanoma): 2.65 µM
TGI (SK-MEL-5 melanoma): 18 µM
GI50 (DU-145 prostate): 5.34 µM
TGI (DU-145 prostate): 32.8 µM
GI50 (CCRF-CEM leukemia): 3.53 µM
TGI (CCRF-CEM leukemia): > 100 µM
GI50 (OVCAR-5 ovarian): 7.95 µM
TGI (OVCAR-5 ovarian): > 100 µM
GI50 (NCI-H522 lung): 1.77 µM
TGI (NCI-H522 lung): 5.8 µM
GI50 (MCF7 breast): 2.28 µM
TGI (MCF7 breast): > 100 µM
GI50 (COLO 205 colon): 3.49 µM
TGI (COLO 205 colon): 32.1 µM
GI50 (U251 CNS): 3.3 µM
TGI (U251 CNS): 20.3 µM
GI50 (HS 578T breast): 3.5 µM
TGI (HS 578T breast): 26.3 µM
GI50 (SN12C renal): 4.48 µM
TGI (SN12C renal): 41.2 µM
GI50 (MDA-MB-231 breast): 2.93 µM
TGI (MDA-MB-231 breast): 20 µM
GI50 (SK-MEL-28 melanoma): 6.26 µM
TGI (SK-MEL-28 melanoma): > 100 µM
GI50 (NCI-H226 lung): 14.8 µM
TGI (NCI-H226 lung): 73.9 µM
GI50 (HOP-62 NSCLC): 5.15 µM
TGI (HOP-62 NSCLC): 35.9 µM
GI50 (SF-295 CNS): 1.99 µM
TGI (SF-295 CNS): 7.13 µM
GI50 (SF-268 CNS): 4.57 µM
TGI (SF-268 CNS): 27.7 µM
GI50 (ACHN renal): 4.21 µM
TGI (ACHN renal): 24.2 µM
GI50 (SR leukemia): 0.339 µM
TGI (SR leukemia): 10.6 µM
GI50 (SF-539 CNS): 2.1 µM
TGI (SF-539 CNS): 5.32 µM
GI50 (PC-3 prostate): 2.72 µM
TGI (PC-3 prostate): 25 µM
GI50 (RXF 393 renal): 2.76 µM
TGI (RXF 393 renal): 29.3 µM
GI50 (MDA-MB-435): 0.3 µM
TGI (MDA-MB-435): 1.46 µM
GI50 (MALME-3M melanoma): 2.45 µM
TGI (MALME-3M melanoma): 16.7 µM
GI50 (A498 renal): 2.95 µM
TGI (A498 renal): 13.9 µM
GI50 (OVCAR-8 ovarian): 4.93 µM
TGI (OVCAR-8 ovarian): 39 µM
GI50 (SNB-19 CNS): 6.56 µM
TGI (SNB-19 CNS): 43.5 µM
GI50 (A549 NSCLC): 3.26 µM
TGI (A549 NSCLC): > 100 µM
GI50 (HCT-116 colon): 2.71 µM
TGI (HCT-116 colon): > 100 µM
GI50 (HT29 colon): 2.32 µM
TGI (HT29 colon): 56.6 µM
GI50 (KM12 colon): 2.15 µM
TGI (KM12 colon): > 100 µM
GI50 (M14 melanoma): 2.58 µM
TGI (M14 melanoma): 92.4 µM
GI50 (CAKI-1 renal): 2.14 µM
TGI (CAKI-1 renal): 7.92 µM
GI50 (MOLT-4 leukemia): 5.12 µM
TGI (MOLT-4 leukemia): > 100 µM
GI50 (SK-MEL-2 melanoma): 2.84 µM
TGI (SK-MEL-2 melanoma): 12.7 µM
GI50 (OVCAR-4 ovarian): 17.5 µM
TGI (OVCAR-4 ovarian): > 100 µM
GI50 (BT-549 breast): 3.78 µM
TGI (BT-549 breast): 28.9 µM
GI50 (SK-OV-3 ovarian): 4.12 µM
TGI (SK-OV-3 ovarian): > 100 µM
GI50 (HL-60(TB) leukemia): 2.21 µM
TGI (HL-60(TB) leukemia): 7.12 µM
GI50 (UO-31 renal): 4.02 µM
TGI (UO-31 renal): 75.3 µM
